According to ChEMBL document CHEMBL5058645, “Data for DCP probe JNJ-6204” (2022):

Tests used:
[1] = target: Mitogen-activated protein kinase kinase kinase 3 (Homo sapiens) (UniProt Q99759); assay: MEKK3(h) Kinase panel; details: Compound concentration 1.0 uM, tested as the 2H-labelled form
[2] = target: Phosphatidylinositol 4,5-bisphosphate 3-kinase catalytic subunit alpha isoform (Homo sapiens) (UniProt P42336); assay: PI3 Kinase (p110a/p85a)(h) Kinase panel; details: Compound concentration 1.0 uM, tested as the 2H-labelled form
[3] = target: Serine-protein kinase ATM (Homo sapiens) (UniProt Q13315); assay: ATM(h) Kinase panel; details: Compound concentration 1.0 uM, tested as the 2H-labelled form
[4] = target: Hepatocyte growth factor receptor (Homo sapiens) (UniProt P08581); assay: Met(h) Kinase panel; details: Compound concentration 1.0 uM, tested as the 2H-labelled form
[5] = target: STE20/SPS1-related proline-alanine-rich protein kinase (Homo sapiens) (UniProt Q9UEW8); assay: STK39(h) Kinase panel; details: Compound concentration 1.0 uM, tested as the 2H-labelled form
[6] = target: 5-hydroxytryptamine receptor 1D (Homo sapiens) (UniProt P28221); details: Compound concentration 10.0 uM, tested as the 2H-labelled form
[7] = target: 5-hydroxytryptamine receptor 3A (Homo sapiens) (UniProt P46098); details: Compound concentration 10.0 uM, tested as the 2H-labelled form
[8] = target: Ribosomal protein S6 kinase alpha-5 (Homo sapiens) (UniProt O75582); assay: MSK1(h) Kinase panel; details: Compound concentration 1.0 uM, tested as the 2H-labelled form
[9] = target: Serine/threonine-protein kinase LATS1 (Homo sapiens) (UniProt O95835); assay: LATS1(h) Kinase panel; details: Compound concentration 1.0 uM, tested as the 2H-labelled form
[10] = target: 5-hydroxytryptamine receptor 7 (Homo sapiens) (UniProt P34969); details: Compound concentration 10.0 uM, tested as the 2H-labelled form
Sequence of 5-hydroxytryptamine receptor 7 (Homo sapiens) (P34969 whole entry): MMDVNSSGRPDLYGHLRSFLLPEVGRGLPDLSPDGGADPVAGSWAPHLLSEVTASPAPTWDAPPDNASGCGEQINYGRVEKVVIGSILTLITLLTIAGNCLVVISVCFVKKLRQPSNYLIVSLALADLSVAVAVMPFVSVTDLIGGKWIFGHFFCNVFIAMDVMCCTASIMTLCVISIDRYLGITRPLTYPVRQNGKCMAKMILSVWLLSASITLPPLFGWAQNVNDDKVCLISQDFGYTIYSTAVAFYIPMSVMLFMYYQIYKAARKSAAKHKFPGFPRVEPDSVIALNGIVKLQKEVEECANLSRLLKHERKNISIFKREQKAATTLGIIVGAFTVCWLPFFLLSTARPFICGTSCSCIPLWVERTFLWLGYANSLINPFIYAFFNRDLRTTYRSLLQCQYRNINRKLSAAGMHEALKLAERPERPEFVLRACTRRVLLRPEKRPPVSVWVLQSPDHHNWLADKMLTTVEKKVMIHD

[11] = target: Cyclin-dependent kinase 1 (Homo sapiens) (UniProt P06493); assay: CDK1/cyclinB(h) Kinase panel; details: Compound concentration 1.0 uM, tested as the 2H-labelled form
[12] = target: RAF proto-oncogene serine/threonine-protein kinase (Homo sapiens) (UniProt P04049); assay: c-RAF(h) Kinase panel; details: Compound concentration 1.0 uM, tested as the 2H-labelled form
[13] = target: Serine/threonine-protein kinase DCLK3 (Homo sapiens) (UniProt Q9C098); assay: DCAMKL3(h) Kinase panel; details: Compound concentration 1.0 uM, tested as the 2H-labelled form
[14] = target: Serine/threonine-protein kinase PAK 5 (Homo sapiens) (UniProt Q9P286); assay: PAK5(h) Kinase panel; details: Compound concentration 1.0 uM, tested as the 2H-labelled form
[15] = target: Serine/threonine-protein kinase OSR1 (Homo sapiens) (UniProt O95747); assay: OSR1(h) Kinase panel; details: Compound concentration 1.0 uM, tested as the 2H-labelled form
[16] = target: Phosphorylase b kinase gamma catalytic chain, testis/liver isoform (Homo sapiens) (UniProt P15735); assay: PhKgamma2(h) Kinase panel; details: Compound concentration 1.0 uM, tested as the 2H-labelled form
Sequence of Phosphorylase b kinase gamma catalytic chain, testis/liver isoform (Homo sapiens) (P15735 whole entry, looked up, canonical isoform): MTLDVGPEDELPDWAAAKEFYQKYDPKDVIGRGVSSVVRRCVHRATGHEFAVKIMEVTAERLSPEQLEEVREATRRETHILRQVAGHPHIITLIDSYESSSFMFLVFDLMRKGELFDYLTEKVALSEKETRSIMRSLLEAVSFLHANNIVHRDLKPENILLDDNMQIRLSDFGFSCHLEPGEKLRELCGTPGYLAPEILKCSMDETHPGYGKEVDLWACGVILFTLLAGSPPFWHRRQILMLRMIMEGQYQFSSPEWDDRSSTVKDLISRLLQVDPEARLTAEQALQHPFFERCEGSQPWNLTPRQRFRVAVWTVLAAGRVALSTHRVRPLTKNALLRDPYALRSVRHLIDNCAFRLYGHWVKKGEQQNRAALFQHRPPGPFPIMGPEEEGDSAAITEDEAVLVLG

[17] = target: Serine/threonine-protein kinase DCLK2 (Homo sapiens) (UniProt Q8N568); assay: DCAMKL2(h) Kinase panel; details: Compound concentration 1.0 uM, tested as the 2H-labelled form
[18] = target: Serine/threonine-protein kinase 32B (Homo sapiens) (UniProt Q9NY57); assay: STK32B(h) Kinase panel; details: Compound concentration 1.0 uM, tested as the 2H-labelled form
[19] = target: Tyrosine-protein kinase HCK (Homo sapiens) (UniProt P08631); assay: Hck(h) Kinase panel; details: Compound concentration 1.0 uM, tested as the 2H-labelled form
[20] = target: Ephrin type-A receptor 7 (Homo sapiens) (UniProt Q15375); assay: EphA7(h) Kinase panel; details: Compound concentration 1.0 uM, tested as the 2H-labelled form
[21] = target: LIM domain kinase 2 (Homo sapiens) (UniProt P53671); assay: LIMK2(h) Kinase panel; details: Compound concentration 1.0 uM, tested as the 2H-labelled form
[22] = target: Mitogen-activated protein kinase kinase kinase 5 (Homo sapiens) (UniProt Q99683); assay: ASK1(h) Kinase panel; details: Compound concentration 1.0 uM, tested as the 2H-labelled form
[23] = target: Fibroblast growth factor receptor 2 (Homo sapiens) (UniProt P21802); assay: FGFR2(h) Kinase panel; details: Compound concentration 1.0 uM, tested as the 2H-labelled form
[24] = target: Protein kinase C delta type (Homo sapiens) (UniProt Q05655); assay: PKCdelta (h) Kinase panel; details: Compound concentration 1.0 uM, tested as the 2H-labelled form
[25] = target: AP2-associated protein kinase 1 (Homo sapiens) (UniProt Q2M2I8); assay: AAK1(h) Kinase panel; details: Compound concentration 1.0 uM, tested as the 2H-labelled form
Sequence of AP2-associated protein kinase 1 (Homo sapiens) (Q2M2I8 whole entry, looked up): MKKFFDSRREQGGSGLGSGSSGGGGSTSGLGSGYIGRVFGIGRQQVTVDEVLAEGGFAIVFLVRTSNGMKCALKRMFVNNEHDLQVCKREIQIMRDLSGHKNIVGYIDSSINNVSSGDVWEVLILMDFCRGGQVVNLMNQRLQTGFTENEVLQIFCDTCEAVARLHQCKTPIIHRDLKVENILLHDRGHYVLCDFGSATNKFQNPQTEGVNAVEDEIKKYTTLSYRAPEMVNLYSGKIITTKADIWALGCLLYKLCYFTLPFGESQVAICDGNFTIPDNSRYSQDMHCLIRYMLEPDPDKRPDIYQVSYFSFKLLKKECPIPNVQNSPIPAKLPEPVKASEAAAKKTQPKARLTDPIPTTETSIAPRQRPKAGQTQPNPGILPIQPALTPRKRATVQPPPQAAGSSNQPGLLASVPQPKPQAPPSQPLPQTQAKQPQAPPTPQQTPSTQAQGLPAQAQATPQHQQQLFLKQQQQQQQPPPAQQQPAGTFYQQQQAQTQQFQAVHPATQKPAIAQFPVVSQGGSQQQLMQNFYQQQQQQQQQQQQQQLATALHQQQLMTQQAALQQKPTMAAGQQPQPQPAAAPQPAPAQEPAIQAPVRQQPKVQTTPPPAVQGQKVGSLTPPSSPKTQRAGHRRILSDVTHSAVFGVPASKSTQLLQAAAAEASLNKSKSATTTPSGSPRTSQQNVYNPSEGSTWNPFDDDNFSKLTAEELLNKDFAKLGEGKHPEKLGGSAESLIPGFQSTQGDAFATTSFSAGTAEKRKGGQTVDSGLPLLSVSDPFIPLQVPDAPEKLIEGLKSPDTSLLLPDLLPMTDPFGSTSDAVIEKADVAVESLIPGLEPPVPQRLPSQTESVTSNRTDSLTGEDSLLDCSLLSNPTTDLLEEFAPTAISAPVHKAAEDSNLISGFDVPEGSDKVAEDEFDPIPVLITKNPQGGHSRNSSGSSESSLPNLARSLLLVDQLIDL

[26] = target: Calcium/calmodulin-dependent protein kinase type II subunit gamma (Homo sapiens) (UniProt Q13555); assay: CaMKIIgamma(h) Kinase panel; details: Compound concentration 1.0 uM, tested as the 2H-labelled form
[27] = target: Serine/threonine-protein kinase TAO2 (Homo sapiens) (UniProt Q9UL54); assay: TAO2(h) Kinase panel; details: Compound concentration 1.0 uM, tested as the 2H-labelled form
Sequence of Serine/threonine-protein kinase TAO2 (Homo sapiens) (Q9UL54 whole entry): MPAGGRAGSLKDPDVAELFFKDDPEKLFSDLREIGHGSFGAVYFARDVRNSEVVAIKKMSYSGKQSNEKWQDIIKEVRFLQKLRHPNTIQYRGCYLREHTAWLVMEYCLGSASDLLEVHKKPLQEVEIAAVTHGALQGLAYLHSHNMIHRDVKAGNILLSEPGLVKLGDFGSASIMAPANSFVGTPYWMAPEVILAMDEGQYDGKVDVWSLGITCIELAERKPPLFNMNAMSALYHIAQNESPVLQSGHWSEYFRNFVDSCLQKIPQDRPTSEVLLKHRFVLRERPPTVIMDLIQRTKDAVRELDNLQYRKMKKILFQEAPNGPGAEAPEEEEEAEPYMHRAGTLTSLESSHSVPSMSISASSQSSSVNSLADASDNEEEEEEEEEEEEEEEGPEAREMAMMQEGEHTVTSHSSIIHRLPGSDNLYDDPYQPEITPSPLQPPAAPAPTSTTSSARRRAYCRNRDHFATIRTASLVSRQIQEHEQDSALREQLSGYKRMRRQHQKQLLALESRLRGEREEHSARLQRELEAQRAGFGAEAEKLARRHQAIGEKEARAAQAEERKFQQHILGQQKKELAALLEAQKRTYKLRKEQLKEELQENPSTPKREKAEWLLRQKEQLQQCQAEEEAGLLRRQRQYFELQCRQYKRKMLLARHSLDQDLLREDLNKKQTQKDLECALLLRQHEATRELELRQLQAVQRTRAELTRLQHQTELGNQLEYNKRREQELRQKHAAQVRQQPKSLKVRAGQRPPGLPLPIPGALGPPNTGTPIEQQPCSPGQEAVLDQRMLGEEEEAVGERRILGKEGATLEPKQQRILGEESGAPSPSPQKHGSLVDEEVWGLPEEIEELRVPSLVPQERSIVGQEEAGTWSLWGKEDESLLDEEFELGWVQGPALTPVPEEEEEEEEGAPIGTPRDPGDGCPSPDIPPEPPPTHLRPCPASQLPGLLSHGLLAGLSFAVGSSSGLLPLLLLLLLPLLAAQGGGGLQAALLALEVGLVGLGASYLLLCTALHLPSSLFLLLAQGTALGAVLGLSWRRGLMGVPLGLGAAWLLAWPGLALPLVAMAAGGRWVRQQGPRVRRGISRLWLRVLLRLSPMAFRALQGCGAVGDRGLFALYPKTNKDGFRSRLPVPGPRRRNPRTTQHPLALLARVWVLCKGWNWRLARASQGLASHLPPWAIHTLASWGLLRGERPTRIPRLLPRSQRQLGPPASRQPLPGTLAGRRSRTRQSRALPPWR

[28] = target: cGMP-dependent protein kinase 1 (Homo sapiens) (UniProt Q13976); assay: PKG1alpha (h) Kinase panel; details: Compound concentration 1.0 uM, tested as the 2H-labelled form
[29] = target: 5-hydroxytryptamine receptor 2A (Homo sapiens) (UniProt P28223); details: Compound concentration 10.0 uM, tested as the 2H-labelled form
[30] = target: Casein kinase I isoform gamma-3 (Homo sapiens) (UniProt Q9Y6M4); assay: CK1gamma3(h) Kinase panel; details: Compound concentration 1.0 uM, tested as the 2H-labelled form
[31] = target: LIM domain kinase 1 (Homo sapiens) (UniProt P53667); assay: LIMK1(h) Kinase panel; details: Compound concentration 1.0 uM, tested as the 2H-labelled form
[32] = target: Serine/threonine-protein kinase BRSK2 (Homo sapiens) (UniProt Q8IWQ3); assay: BrSK2(h) Kinase panel; details: Compound concentration 1.0 uM, tested as the 2H-labelled form
[33] = target: Cyclin-dependent kinase 13 (Homo sapiens) (UniProt Q14004); assay: CDK13/cyclinK(h) Kinase panel; details: Compound concentration 1.0 uM, tested as the 2H-labelled form
[34] = target: 5-hydroxytryptamine receptor 1E (Homo sapiens) (UniProt P28566); details: Compound concentration 10.0 uM, tested as the 2H-labelled form
[35] = target: Protein kinase C theta type (Homo sapiens) (UniProt Q04759); assay: PKCtheta (h) Kinase panel; details: Compound concentration 1.0 uM, tested as the 2H-labelled form
[36] = target: Tyrosine-protein kinase Mer (Homo sapiens) (UniProt Q12866); assay: Mer(h) Kinase panel; details: Compound concentration 1.0 uM, tested as the 2H-labelled form
[37] = target: Phosphatidylinositol 4,5-bisphosphate 3-kinase catalytic subunit beta isoform (Homo sapiens) (UniProt P42338); assay: PI3 Kinase (p110b/p85a)(h) Kinase panel; details: Compound concentration 1.0 uM, tested as the 2H-labelled form
Sequence of Phosphatidylinositol 4,5-bisphosphate 3-kinase catalytic subunit beta isoform (Homo sapiens) (P42338 whole entry, looked up, canonical isoform): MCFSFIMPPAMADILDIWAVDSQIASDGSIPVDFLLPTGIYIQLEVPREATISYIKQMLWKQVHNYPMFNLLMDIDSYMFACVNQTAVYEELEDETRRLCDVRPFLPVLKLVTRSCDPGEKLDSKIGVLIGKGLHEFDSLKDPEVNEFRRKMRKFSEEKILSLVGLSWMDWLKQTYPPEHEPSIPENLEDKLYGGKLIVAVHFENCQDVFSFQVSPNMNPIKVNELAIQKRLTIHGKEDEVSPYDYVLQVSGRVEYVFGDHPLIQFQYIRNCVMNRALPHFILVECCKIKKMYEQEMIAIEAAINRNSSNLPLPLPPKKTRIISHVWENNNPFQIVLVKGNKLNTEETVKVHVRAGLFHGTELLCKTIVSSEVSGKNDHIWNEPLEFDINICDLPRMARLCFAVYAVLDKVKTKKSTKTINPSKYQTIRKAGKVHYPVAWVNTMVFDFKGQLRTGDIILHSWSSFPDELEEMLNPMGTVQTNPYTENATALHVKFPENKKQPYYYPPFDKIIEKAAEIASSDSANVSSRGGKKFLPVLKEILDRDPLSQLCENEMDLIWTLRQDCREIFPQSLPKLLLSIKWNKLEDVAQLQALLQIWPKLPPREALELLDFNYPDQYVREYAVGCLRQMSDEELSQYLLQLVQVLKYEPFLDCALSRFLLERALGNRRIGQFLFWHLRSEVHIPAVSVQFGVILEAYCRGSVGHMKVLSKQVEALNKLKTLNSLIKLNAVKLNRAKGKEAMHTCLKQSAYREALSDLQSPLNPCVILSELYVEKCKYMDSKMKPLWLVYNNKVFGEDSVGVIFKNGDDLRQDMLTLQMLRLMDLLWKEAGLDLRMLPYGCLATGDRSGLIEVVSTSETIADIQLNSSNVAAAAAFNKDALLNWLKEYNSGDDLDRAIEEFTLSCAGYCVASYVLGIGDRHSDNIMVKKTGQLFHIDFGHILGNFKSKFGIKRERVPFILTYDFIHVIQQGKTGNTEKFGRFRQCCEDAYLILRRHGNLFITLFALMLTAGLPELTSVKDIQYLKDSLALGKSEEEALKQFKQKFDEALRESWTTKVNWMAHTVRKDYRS

[38] = target: Mitogen-activated protein kinase kinase kinase 10 (Homo sapiens) (UniProt Q02779); assay: MLK2(h) Kinase panel; details: Compound concentration 1.0 uM, tested as the 2H-labelled form
[39] = target: Serine/threonine-protein kinase tousled-like 1 (Homo sapiens) (UniProt Q9UKI8); assay: TLK1(h) Kinase panel; details: Compound concentration 1.0 uM, tested as the 2H-labelled form
[40] = target: Serine/threonine-protein kinase MAK (Homo sapiens) (UniProt P20794); assay: MAK(h) Kinase panel; details: Compound concentration 1.0 uM, tested as the 2H-labelled form
[41] = target: Muscarinic acetylcholine receptor M2 (Homo sapiens) (UniProt P08172); details: Compound concentration 10.0 uM, tested as the 2H-labelled form
Sequence of Muscarinic acetylcholine receptor M2 (Homo sapiens) (P08172 whole entry, the tested form may be a part): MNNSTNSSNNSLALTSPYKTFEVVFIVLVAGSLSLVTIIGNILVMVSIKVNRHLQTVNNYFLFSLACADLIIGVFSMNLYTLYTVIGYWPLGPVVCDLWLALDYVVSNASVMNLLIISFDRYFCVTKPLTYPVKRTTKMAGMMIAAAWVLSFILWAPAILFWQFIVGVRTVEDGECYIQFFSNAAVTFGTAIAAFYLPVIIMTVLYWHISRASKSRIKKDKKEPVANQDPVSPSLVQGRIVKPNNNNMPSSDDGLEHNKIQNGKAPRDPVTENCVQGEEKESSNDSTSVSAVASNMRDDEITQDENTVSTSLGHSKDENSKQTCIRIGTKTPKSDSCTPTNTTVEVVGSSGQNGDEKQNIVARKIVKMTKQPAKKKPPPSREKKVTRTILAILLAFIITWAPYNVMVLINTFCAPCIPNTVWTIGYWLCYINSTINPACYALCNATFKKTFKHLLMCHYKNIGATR

[42] = target: Phosphatidylinositol 3-kinase C2 domain-containing subunit gamma (Homo sapiens) (UniProt O75747); assay: PI3KC2g(h) Kinase panel; details: Compound concentration 1.0 uM, tested as the 2H-labelled form
[43] = target: Serine/threonine-protein kinase D3 (Homo sapiens) (UniProt O94806); assay: PKD3(h) Kinase panel; details: Compound concentration 1.0 uM, tested as the 2H-labelled form
[44] = target: Serine/threonine-protein kinase ULK1 (Homo sapiens) (UniProt O75385); assay: ULK1(h) Kinase panel; details: Compound concentration 1.0 uM, tested as the 2H-labelled form
[45] = target: Bone morphogenetic protein receptor type-2 (Homo sapiens) (UniProt Q13873); assay: BMPR2(h) Kinase panel; details: Compound concentration 1.0 uM, tested as the 2H-labelled form
[46] = target: Tyrosine-protein kinase Tec (Homo sapiens) (UniProt P42680); assay: Tec(h) activated Kinase panel; details: Compound concentration 1.0 uM, tested as the 2H-labelled form
[47] = target: Cyclin-dependent kinase 9 (Homo sapiens) (UniProt P50750); assay: CDK9/cyclin T1(h) Kinase panel; details: Compound concentration 1.0 uM, tested as the 2H-labelled form
Sequence of Cyclin-dependent kinase 9 (Homo sapiens) (P50750 whole entry): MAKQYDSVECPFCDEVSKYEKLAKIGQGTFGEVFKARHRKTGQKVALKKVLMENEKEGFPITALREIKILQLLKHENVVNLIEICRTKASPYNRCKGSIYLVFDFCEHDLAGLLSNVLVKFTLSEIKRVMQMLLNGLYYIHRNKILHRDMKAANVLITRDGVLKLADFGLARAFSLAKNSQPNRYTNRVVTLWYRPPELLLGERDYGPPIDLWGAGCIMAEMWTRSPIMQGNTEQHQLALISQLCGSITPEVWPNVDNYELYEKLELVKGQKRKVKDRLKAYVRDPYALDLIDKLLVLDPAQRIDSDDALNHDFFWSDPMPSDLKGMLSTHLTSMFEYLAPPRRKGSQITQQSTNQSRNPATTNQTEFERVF

[48] = target: Transient receptor potential cation channel subfamily M member 7 (Homo sapiens) (UniProt Q96QT4); assay: ChaK1(h) Kinase panel; details: Compound concentration 1.0 uM, tested as the 2H-labelled form
[49] = target: Mitogen-activated protein kinase 12 (Homo sapiens) (UniProt P53778); assay: SAPK3(h) Kinase panel; details: Compound concentration 1.0 uM, tested as the 2H-labelled form
[50] = target: Beta-1 adrenergic receptor (Homo sapiens) (UniProt P08588); details: Compound concentration 10.0 uM, tested as the 2H-labelled form

Measured: inhibition

CC1(C)Cn2nc(-c3ccc(F)cn3)c(-c3ccnc4[nH]ncc34)c2CO1
inactive: [1] -4% | [2] 2% | [3] 3% | [4] 8% | [5] 11% | [6] 33.4% | [7] 1.04% | [8] 8% | [9] 20% | [10] -3.57% | [11] -8% | [12] 12% | [13] -6% | [14] 2% | [15] 9% | [16] -9% | [17] 37% | [18] 0% | [19] 25% | [20] 8% | [21] -3% | [22] 12% | [23] 11% | [24] 0% | [25] 5% | [26] -2% | [27] 18% | [28] -9% | [29] 16.5% | [30] -2% | [31] -9% | [32] -2% | [33] 0% | [34] 2.51% | [35] 9% | [36] 6% | [37] 0% | [38] 8% | [39] 6% | [40] 10% | [41] -0.4% | [42] -4% | [43] 17% | [44] 9% | [45] -7% | [46] 29% | [47] -3% | [48] 10% | [49] 28% | [50] -1.12%
